From US20220251074A1, “HERBICIDAL AMIDES” (BASF SE, priority 2019, published 2022) come the findings set out here.

In one test the test system is ECHCG. Nature of the test: greenhouse post-emergence herbicidal test. The conditions noted are these: post-emergence method, application rate 500 g/ha, scale from 0 to 100. The class given is in vivo, Echinocloa crus-galli. From the text:
(§1) The culture containers used were plastic flowerpots containing loamy sand with approximately 3.0% of humus as the substrate. The seeds of the test plants were sown separately for each species.
(§2) For the post-emergence treatment, the test plants were first grown to a height of 3 to 15 cm, depending on the plant habit, and only then treated with the active ingredients which had been suspended or emulsified in water. For this purpose, the test plants were either sown directly and grown in the same containers, or they were first grown separately as seedlings and transplanted into the test containers a few days prior to treatment.
(§3) Depending on the species, the plants were kept at 10-25° C. or 20-35° C., respectively. The test period extended over 2 to 4 weeks. During this time, the plants were tended, and their response to the individual treatments was evaluated.
(§4) Evaluation was carried out using a scale from 0 to 100. 100 means no emergence of the plants, or complete destruction of at least the aerial moieties, and 0 means no damage, or normal course of growth. A good herbicidal activity is given at values of at least 80 and a very good herbicidal activity is given at values of at least 90.
(§5) The plants used in the greenhouse experiments were of the following species: […]

In a further test the test system is ABUTH. Put plainly: greenhouse post-emergence herbicidal test. It is filed as in vivo, Abutilon theophrasti. Conditions: post-emergence method, application rate 500 g/ha, scale from 0 to 100.
Text: as §1, §2, §3, §4, §5

The subject of test [1] is AMARE. Put plainly: greenhouse post-emergence herbicidal test. It is filed as in vivo, Amaranthus retroflexus. Conditions: post-emergence method, application rate 500 g/ha, scale from 0 to 100.
Text: as §1, §2, §3, §4, §5

Another test relates to SETVI. Put plainly: greenhouse post-emergence herbicidal test. It is filed as in vivo, Setaria viridis. The conditions noted are these: application rate 500 g/ha, scale from 0 to 100; for damages, unwanted plants SETVI: post-emergence application, greenhouse; for herbicidal activity against SETVI: post-emergence method.
Text: as §1, §2, §3, §4, §5

A further test deals with ALOMY. Nature of the test: greenhouse post-emergence herbicidal test. It is filed as in vivo, Alopercurus myosuroides. Conditions: post-emergence application, application rate 500 g/ha, scale from 0 to 100.
Text: as §1, §2, §3, §4, §5

The subject of another test is AVEFA. Nature of the test: greenhouse post-emergence herbicidal test. It is filed as in vivo, Avena fatua. Conditions: application rate 500 g/ha, scale from 0 to 100; for damages, unwanted plants AVEFA: post-emergence application, greenhouse.
Text: as §1, §2, §3, §4, §5

A further test has as its system CHEAL. Put plainly: greenhouse post-emergence herbicidal test. The class given is in vivo, Chenopodium album. Conditions: post-emergence application, application rate 8 g/ha, scale from 0 to 100.
Text: as §1, §2, §3, §4, §5

The next test concerns RAPRA. Put plainly: greenhouse post-emergence herbicidal test. It is filed as in vivo, Raphanus raphanistrum. Conditions: post-emergence application, application rate 8 g/ha, scale from 0 to 100.
Text: as §1, §2, §3, §4, §5

Another test concerns SEBEX. Nature of the test: greenhouse post-emergence herbicidal test. It is filed as in vivo, Sesbania exaltata. Conditions: post-emergence application, application rate 8 g/ha, scale from 0 to 100.
Text: as §1, §2, §3, §4, §5

A further test concerns SETFA. Put plainly: greenhouse pre-emergence herbicidal test. It is filed as in vivo, Setaria faberi. The conditions noted are these: pre-emergence method, application rate 500 g/ha, scale from 0 to 100.
Text: as §1
(§6) For the pre-emergence treatment, the active ingredients, which had been suspended or emulsified in water, were applied directly after sowing by means of finely distributing nozzles. The containers were irrigated gently to promote germination and growth and subsequently covered with transparent plastic hoods until the plants had rooted. This cover caused uniform germination of the test plants, unless this had been impaired by the active ingredients.
as §3, §4, §5

The test system of test [2] is AMARE. Put plainly: greenhouse pre-emergence herbicidal test. It is filed as in vivo, Amaranthus retroflexus. The conditions noted are these: pre-emergence method, application rate 500 g/ha, scale from 0 to 100.
Text: as §1, §6, §3, §4, §5

Regarding `CCOC1OC2C(CC3OC3C(C)C(C)O)COC(CC(C)=CC(=O)NCC(F)(F)F)C2O1` (mixture of isomers) [compound 20], the “herbicidal activity against ECHCG” value in the test on ECHCG is reported as “very good herbicidal activity (a very good herbicidal activity is given at values of at least 90)”. Moreover, in the test on ABUTH, the “herbicidal activity against ABUTH” value is reported as “very good herbicidal activity (a very good herbicidal activity is given at values of at least 90)”. Besides, in the test on AMARE [1], the “herbicidal activity against AMARE” value is “very good herbicidal activity (a very good herbicidal activity is given at values of at least 90)”.
Regarding `C/C(=C\C(=O)NCCO)C[C@@H]1OC[C@H](C[C@@H]2O[C@H]2[C@@H](C)[C@H](C)O)[C@@H](O)[C@H]1O` [cmpd 77 (WO 93/19599), reference compound], in the test on SETVI, the “damages, unwanted plants SETVI” value was 85. Besides, in the test on ALOMY, the “damages, unwanted plants ALOMY” value was 70. In the test on AVEFA, the “damages, unwanted plants AVEFA” value came out at 50. In addition, in the test with CHEAL, the “damages, unwanted plants CHEAL” value was determined as 75. Moreover, the “damages, unwanted plants RAPRA” value with RAPRA is given as 85. In addition, in the test on SEBEX, the “damages, unwanted plants SEBEX” value came to 65.
For `C/C(=C\C(=O)NCCF)C[C@@H]1OC[C@H](C[C@@H]2O[C@H]2[C@@H](C)[C@H](C)O)[C@@H](O)[C@H]1O` [compound 1], the “damages, unwanted plants SETVI” value with SETVI is reported as 100. In the test on ALOMY, the “damages, unwanted plants ALOMY” value was found to be 100. Besides, the “damages, unwanted plants CHEAL” value in the test on CHEAL turned out to be 100. In the test on RAPRA, the “damages, unwanted plants RAPRA” value is listed as 100.
For the compound `C/C(=C\C(=O)NCC(F)(F)C(F)(F)C(F)(F)F)C[C@@H]1OC[C@H](C[C@@H]2O[C@H]2[C@@H](C)[C@H](C)O)[C@@H](O)[C@H]1O` [compound 9], the “herbicidal activity against ECHCG” value in the test on ECHCG is given as “good herbicidal activity (A good herbicidal activity is given at values of at least 80)”. For the same compound, the “herbicidal activity against SETVI” value in the test with SETVI is “very good herbicidal activity (a very good herbicidal activity is given at values of at least 90)”. In addition, the “herbicidal activity against AMARE” value in the test on AMARE [1] is recorded as “very good herbicidal activity (a very good herbicidal activity is given at values of at least 90)”.
`CC(=CC(=O)NCC(F)(F)C(F)(F)C(F)(F)F)CC1OCC(CC2OC2C(C)C(C)O)C2OC(C)(C)OC12` (stereo not shown) [compound 19]: the “herbicidal activity against AMARE” value in the test on AMARE [1] is given as “very good herbicidal activity (a very good herbicidal activity is given at values of at least 90)”.
In the case of `C#CCNC(=O)/C=C(\C)C[C@@H]1OC[C@H](C[C@@H]2O[C@H]2[C@@H](C)[C@H](C)O)[C@@H](O)[C@H]1O` [compound 26, (E)-4-[(2S,3R,4R,5S)-3,4-dihydroxy-5-[[(2S,3S)-3-[(1S,2S)-2-hydroxy-1-methyl-propyl]oxiran-2-yl]methyl]tetrahydropyran-2-yl]-3-methyl-N-prop-2-ynyl-but-2-enamide], the “damages, unwanted plants SETVI” value in the test with SETVI is recorded as 100. The “damages, unwanted plants ALOMY” value with ALOMY was 95. In the test with AVEFA, the “damages, unwanted plants AVEFA” value was 98. For the same compound, the “damages, unwanted plants CHEAL” value with CHEAL worked out at 100. For the same compound, the “damages, unwanted plants RAPRA” value in the test with RAPRA turned out to be 100. In addition, the “damages, unwanted plants SEBEX” value in the test with SEBEX is 100.
For `C/C(=C\C(=O)NCC#CC(C)(C)C)C[C@@H]1OC[C@H](C[C@@H]2O[C@H]2[C@@H](C)[C@H](C)O)[C@@H](O)[C@H]1O` [compound 29], the “herbicidal activity against SETFA” value with SETFA was “good herbicidal activity (A good herbicidal activity is given at values of at least 80)”.
On to `C#CCNC(=O)C=C(C)CC1OCC(CC2OC2C(C)C(C)O)C2OC(OCC)OC12` (stereo not shown) [compound 33], for which the “herbicidal activity against AMARE” value in the test with AMARE [2] is on record as “good herbicidal activity (A good herbicidal activity is given at values of at least 80)”.
As for `C/C(=C\C(=O)N1CCSC1=O)C[C@@H]1OC[C@H](C[C@@H]2O[C@H]2[C@@H](C)[C@H](C)O)[C@@H](O)[C@H]1O` [compound 37], in the test with ECHCG, the “herbicidal activity against ECHCG” value was “good herbicidal activity (A good herbicidal activity is given at values of at least 80)”. In addition, the “herbicidal activity against SETVI” value in the test with SETVI is reported as “very good herbicidal activity (a very good herbicidal activity is given at values of at least 90)”. Besides, the “herbicidal activity against ABUTH” value in the test on ABUTH is listed as “very good herbicidal activity (a very good herbicidal activity is given at values of at least 90)”. Moreover, the “herbicidal activity against AMARE” value in the test with AMARE [1] is “good herbicidal activity (A good herbicidal activity is given at values of at least 80)”.
Regarding `CC(=CC(=O)N1CCSC1=O)CC1OCC(CC2OC2C(C)C(C)O)C2OC(C)(C)OC12` (stereo not shown) [compound 39], the “herbicidal activity against SETVI” value in the test on SETVI is on record as “very good herbicidal activity (a very good herbicidal activity is given at values of at least 90)”. Also, in the test with ABUTH, the “herbicidal activity against ABUTH” value is “very good herbicidal activity (a very good herbicidal activity is given at values of at least 90)”.
In the case of `CC(=O)[C@H](C)[C@@H]1O[C@H]1C[C@H]1CO[C@@H](C/C(C)=C/C(=O)NCC(F)(F)F)[C@H](O)[C@@H]1O` [compound 43], the “herbicidal activity against SETVI” value in the test on SETVI is “very good herbicidal activity (a very good herbicidal activity is given at values of at least 90)”. Further, the “herbicidal activity against ABUTH” value in the test with ABUTH is “very good herbicidal activity (a very good herbicidal activity is given at values of at least 90)”. Besides, the “herbicidal activity against AVEFA” value in the test with AVEFA (post-emergence method) is given as “very good herbicidal activity (a very good herbicidal activity is given at values of at least 90)”.
